{
  "source": "ChEMBL document CHEMBL1201862",
  "about": "“PubChem BioAssay data set” (2004)",
  "test_in_all_cases": "growth of human tumour cells (NCI), 48 h",
  "key": {"786-0": {"system": "786-0"}, "A498": {"system": "A498"}, "A549": {"system": "A549"}, "ACHN": {"system": "ACHN"}, "BT-549": {"system": "BT-549"}, "CAKI-1": {"system": "CAKI-1"}, "CCRF-CEM": {"system": "CCRF-CEM"}, "COLO 205": {"system": "COLO 205"}, "DU-145": {"system": "DU-145"}, "EKVX": {"system": "EKVX"}, "HCC 2998": {"system": "HCC 2998"}, "HCT-116": {"system": "HCT-116"}, "HCT-15": {"system": "HCT-15"}, "HL-60": {"system": "HL-60"}, "HOP-62": {"system": "HOP-62"}, "HOP-92": {"system": "HOP-92"}, "Hs-578T": {"system": "Hs-578T"}, "IGROV-1": {"system": "IGROV-1"}, "K562": {"system": "K562"}, "KM12": {"system": "KM12"}, "LOX IMVI": {"system": "LOX IMVI"}, "M14": {"system": "M14"}, "MCF7": {"system": "MCF7"}, "MDA-MB-231": {"system": "MDA-MB-231"}, "MDA-MB-435": {"system": "MDA-MB-435"}, "MDA-N": {"system": "MDA-N"}, "MOLT-4": {"system": "MOLT-4"}, "Malme-3M": {"system": "Malme-3M"}, "NCI-H226": {"system": "NCI-H226"}, "NCI-H23": {"system": "NCI-H23"}, "NCI-H460": {"system": "NCI-H460"}, "NCI-H522": {"system": "NCI-H522"}, "NCI/ADR-RES": {"system": "NCI/ADR-RES"}, "OVCAR-3": {"system": "OVCAR-3"}, "OVCAR-4": {"system": "OVCAR-4"}, "OVCAR-5": {"system": "OVCAR-5"}, "OVCAR-8": {"system": "OVCAR-8"}, "PC-3": {"system": "PC-3"}, "RPMI-8226": {"system": "RPMI-8226"}, "RXF 393": {"system": "RXF 393"}, "SF-268": {"system": "SF-268"}, "SF-295": {"system": "SF-295"}, "SK-MEL-28": {"system": "SK-MEL-28"}, "SK-MEL-2": {"system": "SK-MEL-2"}, "SK-OV-3": {"system": "SK-OV-3"}, "SN12C": {"system": "SN12C"}, "SNB-19": {"system": "SNB-19"}, "SNB-75": {"system": "SNB-75"}, "SR": {"system": "SR"}, "SW-620": {"system": "SW-620"}, "T47D": {"system": "T47D"}, "TK-10": {"system": "TK-10"}, "U-251": {"system": "U-251"}, "UACC-257": {"system": "UACC-257"}, "UACC-62": {"system": "UACC-62"}, "UO-31": {"system": "UO-31"}},
  "note": "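1) Cells in 96-well plates. 2) Compound, 48 h, 5 concentrations. 3) Linear interpolation between surrounding doses. 4) Unreached endpoint = highest concentration. At the GI50, growth is halved.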 Active and inactive are the calls of the source. No stated cut-off is given here; in the data, active = GI50 up to about 1.1 µM and inactive = higher.",
  "data": [
    {"smiles": "C1=Cc2nccc3cc4c(c(c23)N1)OCO4", "values": [
      {"measurement": "GI50", "setting": "786-0", "value": "4.03 µM (inactive)"},
      {"measurement": "GI50", "setting": "A498", "value": "21.6 µM (inactive)"},
      {"measurement": "GI50", "setting": "A549", "value": "5.3 µM (inactive)"},
      {"measurement": "GI50", "setting": "ACHN", "value": "4.52 µM (inactive)"},
      {"measurement": "GI50", "setting": "BT-549", "value": "20.3 µM (inactive)"},
      {"measurement": "GI50", "setting": "CAKI-1", "value": "8.99 µM (inactive)"},
      {"measurement": "GI50", "setting": "CCRF-CEM", "value": "7.69 µM (inactive)"},
      {"measurement": "GI50", "setting": "COLO 205", "value": "3.55 µM (inactive)"},
      {"measurement": "GI50", "setting": "DU-145", "value": "6.15 µM (inactive)"},
      {"measurement": "GI50", "setting": "EKVX", "value": "9.55 µM (inactive)"},
      {"measurement": "GI50", "setting": "HCC 2998", "value": "8.95 µM (inactive)"},
      {"measurement": "GI50", "setting": "HCT-116", "value": "3.08 µM (inactive)"},
      {"measurement": "GI50", "setting": "HCT-15", "value": 13.9, "unit": "µM"},
      {"measurement": "GI50", "setting": "HL-60", "value": "> 100 µM (inactive)"},
      {"measurement": "GI50", "setting": "HOP-62", "value": "7.62 µM (inactive)"},
      {"measurement": "GI50", "setting": "HOP-92", "value": "22.3 µM (inactive)"},
      {"measurement": "GI50", "setting": "Hs-578T", "value": "3.58 µM (inactive)"},
      {"measurement": "GI50", "setting": "IGROV-1", "value": "2.56 µM (inactive)"},
      {"measurement": "GI50", "setting": "K562", "value": "3.17 µM (inactive)"},
      {"measurement": "GI50", "setting": "KM12", "value": "6.73 µM (inactive)"},
      {"measurement": "GI50", "setting": "LOX IMVI", "value": "8.61 µM (inactive)"},
      {"measurement": "GI50", "setting": "M14", "value": "18.4 µM (inactive)"},
      {"measurement": "GI50", "setting": "MCF7", "value": "2.32 µM (inactive)"},
      {"measurement": "GI50", "setting": "MDA-MB-231", "value": "10.3 µM (inactive)"},
      {"measurement": "GI50", "setting": "MDA-MB-435", "value": "12.7 µM (inactive)"},
      {"measurement": "GI50", "setting": "MDA-N", "value": "8.02 µM (inactive)"},
      {"measurement": "GI50", "setting": "MOLT-4", "value": "1.39 µM (inactive)"},
      {"measurement": "GI50", "setting": "Malme-3M", "value": "9.23 µM (inactive)"},
      {"measurement": "GI50", "setting": "NCI-H226", "value": "11.4 µM (inactive)"},
      {"measurement": "GI50", "setting": "NCI-H23", "value": "6.92 µM (inactive)"},
      {"measurement": "GI50", "setting": "NCI-H460", "value": "4.36 µM (inactive)"},
      {"measurement": "GI50", "setting": "NCI-H522", "value": "2.42 µM (inactive)"},
      {"measurement": "GI50", "setting": "NCI/ADR-RES", "value": "12.2 µM (inactive)"},
      {"measurement": "GI50", "setting": "OVCAR-3", "value": "10.9 µM (inactive)"},
      {"measurement": "GI50", "setting": "OVCAR-4", "value": "7.45 µM (inactive)"},
      {"measurement": "GI50", "setting": "OVCAR-5", "value": "10.4 µM (inactive)"},
      {"measurement": "GI50", "setting": "OVCAR-8", "value": "3.93 µM (inactive)"},
      {"measurement": "GI50", "setting": "PC-3", "value": "11.6 µM (inactive)"},
      {"measurement": "GI50", "setting": "RPMI-8226", "value": "4.53 µM (inactive)"},
      {"measurement": "GI50", "setting": "RXF 393", "value": "1.64 µM (inactive)"},
      {"measurement": "GI50", "setting": "SF-268", "value": "8.13 µM (inactive)"},
      {"measurement": "GI50", "setting": "SF-295", "value": "3.36 µM (inactive)"},
      {"measurement": "GI50", "setting": "SK-MEL-28", "value": "24 µM (inactive)"},
      {"measurement": "GI50", "setting": "SK-MEL-2", "value": "13.3 µM (inactive)"},
      {"measurement": "GI50", "setting": "SK-OV-3", "value": "5.92 µM (inactive)"},
      {"measurement": "GI50", "setting": "SN12C", "value": "4.89 µM (inactive)"},
      {"measurement": "GI50", "setting": "SNB-19", "value": "7.08 µM (inactive)"},
      {"measurement": "GI50", "setting": "SNB-75", "value": "6.93 µM (inactive)"},
      {"measurement": "GI50", "setting": "SR", "value": "1.28 µM (inactive)"},
      {"measurement": "GI50", "setting": "SW-620", "value": "5.68 µM (inactive)"},
      {"measurement": "GI50", "setting": "T47D", "value": "6.4 µM (inactive)"},
      {"measurement": "GI50", "setting": "TK-10", "value": "14.7 µM (inactive)"},
      {"measurement": "GI50", "setting": "U-251", "value": "13.5 µM (inactive)"},
      {"measurement": "GI50", "setting": "UACC-257", "value": "17.5 µM (inactive)"},
      {"measurement": "GI50", "setting": "UACC-62", "value": "14.1 µM (inactive)"},
      {"measurement": "GI50", "setting": "UO-31", "value": "6.44 µM (inactive)"}
    ]}
  ]
}
